How the values were obtained:
[1] = tested on: Pan02; assay: Pan02 pancreatic flank tumor growth in immunocompetent mice; format: in vivo, mouse; conditions: SRA737 100 mg/kg 5-days-on/2-days-off p.o., anti-PD1 BIW 10 mg/kg i.p.
Experimental: (§1) Tumors were evaluated twice weekly for the duration of the study. Tumor volumes were measured on all mice three times per week and calculated (width^2×length×0.4) using manual calipers. Once the average tumor size was in the range of 120-150 mm^3, mice were randomized into dosing groups using stratified sampling by assigning three animals per group for short-term reverse-phase protein array analysis and long-term treatment. Dosing schedules and duration varied depending on the study. Mice were weighed three times per week for the duration of the study, and a decrease in body weight >15% was considered indicative of a toxic dose. The Student t-test was used to determine statistical significance between compound- and vehicle-treated groups.
(§2) Tumors cells were implanted into the flank of immunocompetent mice. Once the volumes of the tumor reached 150-200 mm^3, the mice were randomized and treated with either monotherapy of SRA737 at 100 mg/kg for 5-days-on/2-days-off p.o., anti-PD1 BIW at 10 mg/kg i.p. or the combination thereof.

[2] = tested on: EMT6/P; assay: Micronuclei assay, EMT6/P; format: cell-based; conditions: 1 μM, 24 hours or 48 hours
Experimental: H69 cells were cultured as discussed earlier and treated with or without SRA737 (1 μM). Cytochalasin B was added at 20th hour to each culture to give a final concentration of 3 μg/ml and the culture was incubated at 37° C. for up to 24 hrs. After 24 hrs incubation, the cells were centrifuged at 1000 rpm for 5 min. The supernatant was removed and the pellet was treated with weak hypotonic solution (0.075 M KCl/0.9% Saline, 1:9) and incubated at 37° C. for 5 min. After this, the cells were centrifuged and the pellets were fixed in fresh fixative (methanol:acetic acid, 3:1). Cells were dropped onto glass slides were prepared and stained with ProLong® Gold Antifade Mountant with DAPI. In the case of EMT-6 cells, micronuclei formation assays were performed at Phenovista Biosciences, San Diego. The cells were treated with either 1 μM or 5 μM SRA737 for 24h followed by mixing with 4% PFA for 20 minutes at RT directly in the culture wells, washing with PBS and staining with Hoechst (1:1000). The plates were imaged at 40× using the Thermo Fisher Scientific CellInsight CX7 imaging system and the micronuclei algorithm was adjusted to score all nuclei that are <55% of the size of the main nucleus. A total of 25 fields per well were imaged and the data was averaged across 8 replicates.
SRA737 was also evaluated for induced cytogenetic stress using a micronuclei (MN) assay.

[3] = tested on: cryopreserved hepatocytes; assay: Rank order of stability in cryopreserved hepatocytes across species; format: in vitro ADME, human, mouse, rat, dog, minipig and monkey; conditions: 10 μM, up to 4 hours
Experimental: The formation of SRA737-related metabolites was determined in cryopreserved hepatocytes from human, mouse, rat, dog, minipig and monkey samples after incubation with SRA737 at a nominal concentration of 10 μM for up to 4 hours. […] In the human hepatocyte preparation, approximately 67% of the parent remained after 4 hours of incubation compared to 75% and 7% in the rat and minipig preparations, respectively. Eight human SRA737 metabolites were observed. All SRA737 metabolites formed by human hepatocytes were also formed by monkey hepatocytes. Six metabolites were present at equal or greater abundance in the monkey.

[4] = target: T1, Chk1 S296 autophosphorylation (Homo sapiens, UniProt O14757); assay: Gemcitabine-induced Chk1 S296 autophosphorylation in HT29 tumor xenografts (western blotting); format: in vivo, mouse; conditions: mice bearing HT29 xenografts; oral, 24 hours after gemcitabine 100 mg/kg IV
T1 construct: mice bearing HT29 tumor xenografts were administered; endogenous in cells; host or cells: HT29 human colon cancer xenografts in mice
T1 sequence (O14757 whole entry): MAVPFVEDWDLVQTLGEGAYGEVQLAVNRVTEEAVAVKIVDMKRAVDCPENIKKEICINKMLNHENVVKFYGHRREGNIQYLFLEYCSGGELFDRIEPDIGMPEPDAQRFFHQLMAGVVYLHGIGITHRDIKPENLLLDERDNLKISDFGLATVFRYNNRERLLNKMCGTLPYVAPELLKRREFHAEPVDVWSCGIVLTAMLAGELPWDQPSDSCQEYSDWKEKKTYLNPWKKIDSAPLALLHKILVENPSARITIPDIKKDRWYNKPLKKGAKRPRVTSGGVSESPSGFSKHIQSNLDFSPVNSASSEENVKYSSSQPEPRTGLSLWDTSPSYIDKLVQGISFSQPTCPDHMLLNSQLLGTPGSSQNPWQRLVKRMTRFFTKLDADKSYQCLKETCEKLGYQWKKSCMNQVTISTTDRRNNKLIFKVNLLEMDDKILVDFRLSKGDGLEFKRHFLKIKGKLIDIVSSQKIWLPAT
Experimental: The effect of SRA737 on Gemcitabine induced Chk1 S296 autophosphorylation was assessed as described in Walton et al. (Oncotarget. 2016 Jan. 19; 7(3): 2329-2342), herein incorporated by reference for all it teaches. Briefly, mice bearing HT29 tumor xenografts were administered (i) vehicle control or (ii) gemcitabine (100 mg/kg in saline, IV) or (iii) a combination of SRA737 (12.5, 25, 50 or 100 mg/kg in DTPW, oral) and gemcitabine (100 mg/kg) with SRA737 administered 24 hours following gemcitabine administration (n=3 per time point per treatment). […] Exposure in the tumor was greater than 10-fold higher than in plasma. The circulating plasma concentration at this 24-hour timepoint corresponded to a free drug concentration of approximately 6 nM (2 ng/mL) based on plasma protein binding in mice of 94%.

[5] = tested on: CXCL10 and CCL5; assay: qPCR of CXCL10 and CCL5 in MBT-2 tumors; format: in vivo, mouse
Source text: FIGS. 23A-D show the qPCR measurement of CXCL10 and CCL5 mRNA expression in MBT-2 (FIG. 23A and FIG. 23B) and MC38 (FIG. 23C and FIG. 23D) tumors resected after 7 or 14 days of treatment with SRA737 5/7 days. Data presented as mean±SD and p values by t-test * p<0.05, **p<0.01, ***p<0.001.
Real-time PCR was done using SYBR Select Master Mix (Life Technologies, cat #4472908) according to the manufacturer's protocol. Primers were purchased from Sigma Aldrich, Inc. Triplicate PCR reactions were run on ABI (7500 Fast Real Time PCR System). The comparative Ct method using the average 2ΔΔCT value for each set of triplicates was used, and the average of the biological replicates was calculated. Negative controls were included for every primer set, and GAPDH was used as the […].
The flank of immunocompetent mice was then treated with SRA737 monotherapy for 5-days-on/2-days-off for either one or two cycles and the expression of CCL5 and CXCL10 in extracted tumors were analyzed. […] The previously used dosing regimen of 5-days-on/2-days-off was modified to a schedule of 7-days-on/7-days-off for SRA737 treatment with or without co-treatment with anti-PD1 (Days 3, 7 and 11) based on the results of induction of chemokines secretion after 7 days.

[6] = tested on: PD-L1; assay: Flow cytometry of surface PD-L1 in SCLC cell lines; format: cell-based; conditions: all SCLC cell lines tested; 1 μM for 72 hours
Experimental: Data presented as mean±SD and p values by t-test ***p<0.001.
Single-cell suspensions were prepared and stained according to standard protocols for flow cytometry with antibodies. For intracellular staining, cells were fixed and permeabilized with BD Cytofix/Cytoperm (BD Biosciences). The data were acquired on a Fortessa or Calibur platform (BD Biosciences) and analyzed with FlowJo software (version 7.6; Tree Star). For analyzing the abundance and the function of CD4+ or CD8+ TILs, single-cell suspensions were prepared from tumors and spleen and stained; the staining of spleen cells was used as the reference of lymphocyte gating, then CD3+ cells were gated, and then CD4+ or CD8+ population was analyzed.

[7] = tested on: MBT-2; assay: MBT-2 bladder flank tumor growth in immunocompetent mice; format: in vivo, mouse; conditions: SRA737 100 mg/kg 5-days-on/2-days-off p.o., anti-PD1 BIW 10 mg/kg i.p.
Experimental: as §1, §2

[8] = target: T2, Chk1 (Homo sapiens, UniProt O14757); conditions: previously found; Walton et al.; cited from earlier work
T2 construct: endogenous in cells
T2 sequence (O14757 whole entry, species assumed): as the sequence (O14757 whole entry) above

rank order of stability from most stable to least stable [3]: rat≈mouse >monkey≈human >>dog >>minipig
SRA737 doses at which inhibition of pS296 Chk1 was observed [4]: greater than or equal to 12.5 mg/kg
SMILES: N#Cc1cnc(Nc2cc(NCC3CNCCO3)c(C(F)(F)F)cn2)cn1 (stereo not shown) [SRA737, 5-[[4-[[morpholin-2-yl]methylamino]-5-(trifluoromethyl)-2-pyridyl]amino]pyrazine-2-carbonitrile]
TGI [1]: 59%
micronuclei formation [2]: led to micronuclei formation
CCL5 levels ([5]; after 7 days, p<0.01): significantly induced
CCL5 levels ([5]; after 14 days): no significant difference
CXCL10 expression ([5]; after both 7 days and 14 days, p<0.05): significant induction
cell surface PD-L1 expression [6]: significantly increased
TGI [7]: 53%
off-target activity against other kinases [8]: limited off-target activity against other kinases

— US20220184091A1, “Methods of Treating Cancer with Chk1 Inhibitors” (Sierra Oncology, Inc., priority 2019, published 2022)
